According to publication PMC6212833 (mBio, 2018):
Read-outs that look alike come from different tables or passages of the source.

Tests used:
[1] = tested on: B. mandrillaris trophozoites; assay: Secondary screening dose response, B. mandrillaris trophozoites; format: cell-based, Balamuthia mandrillaris; details: Balamuthia mandrillaris, 72 h, read-out: B. mandrillaris IC50
Experimental: (§2) Secondary screening of hit compounds consisted of dose-response experiments to measure the toxicity of each compound to B. mandrillaris trophozoites, HFF-1 human fibroblast cells, and H4 human neuroglioma cells. Four 384-well plates were prepared prior to addition of drug as follows: one opaque plate (Corning) seeded with 3,000 HFF-1 cells per well in 60 µl complete media, one opaque plate seeded with 2,000 H4 cells per well in 60 µl complete media, one opaque plate containing 30 µl axenic media, and one clear plate (Corning) containing 30 µl axenic media. Opaque plates were used to measure the viability of trophozoites in the CTG assay, and clear plates were used for microscopic examination of cyst formation. HFF-1 and H4 plates were seeded 24 h prior to drug addition. The selected primary screen hits were added from 10 mM DMSO stocks into wells of all four test plates to reach final concentrations ranging from 0.06 µM to 30 µM (10 concentrations, 2-fold serial dilution). Negative-control wells received concentrations of DMSO corresponding to the amount of DMSO in each tested drug well (reaching a maximum of 0.3% DMSO). B. mandrillaris trophozoites were resuspended in axenic media and added to the plates containing drug dilutions in axenic media at a density of 3,000 amoebae per well in a final volume of 60 µl media. All plates were incubated for 72 h. Throughout the incubation period, the clear-bottom B. mandrillaris plate was monitored for large-scale changes to population encystment in response to drug treatment. After the 72-h incubation, 30 µl of CTG reagent was added to all wells of the opaque assay plates and luminescence was measured with a Promega GloMax-Multi+ plate reader at 2, 4, and 8 h after CTG addition.

B. mandrillaris cysts = assay: Dose response, viability of preformed galactose-induced cysts; format: cell-based, Balamuthia mandrillaris; details: 72 h
Experimental: Following the findings of a previous study, encystment of B. mandrillaris was induced by galactose exposure ([74]). B. mandrillaris trophozoites were grown to log phase in axenic media, and galactose was added to reach a final concentration of 12% (vol/vol). Amoebae were cultured in the induction medium until trophozoites were no longer observed (approximately 10 days). Galactose-induced cysts transition back to trophozoites after approximately 3 days of incubation in galactose-free axenic medium. Therefore, all assays with cysts were completed in the induction medium. […] All incubation steps for B. mandrillaris growth were carried out at 37°C with 5% CO2.
(§1) B. mandrillaris trophozoites were seeded at 4,000 amoebae per well into opaque and clear-bottom 96-well plates (Corning). Homogenous populations of B. mandrillaris cysts generated by galactose induction were seeded at 4,000 amoebae per well into opaque 96-well plates. HFF-1 (fibroblast), H4 (glial), U87 (glial), HEK-293T (kidney), and Hep-G2 (liver) cells were seeded at 3,000 cells per well in opaque 96-well plates 24 h prior to addition of drug. Stocks of nitroxoline (Selleck Chemicals) were dissolved in 100% DMSO at 10 mM. Stocks of azithromycin (Selleck Chemicals), pentamidine isethionate (Selleck Chemicals), and miltefosine (Selleck Chemicals) were dissolved in water at 10 mM. Drug stocks were serially diluted in water to generate 12-point dilution series, which were then used to treat assay wells containing B. mandrillaris or human cells at final concentrations ranging from 0.39 µM to 400 µM in 100-µl total well volumes. Control wells were treated with vehicle (DMSO or water) at concentrations corresponding to the final vehicle concentrations in each drug dilution series. After incubation for 72 h, 50 µl of CTG was added to all assay wells. Luminescence was measured with a Promega GloMax-Multi+ plate reader 2, 4, and […] after CTG addition. All dose-response experiments were performed with at least three independent biological replicates. IC50 values were determined as previously described. To quantify encystment under treated and untreated conditions, amoebae in individual assay wells were resuspended thoroughly and the number of cysts and number of trophozoites in 10-µl samples were counted by the use of a hemocytometer (SKC, Inc.). Cysts and trophozoites are morphologically distinct, making them simple to distinguish with bright-field microscopy (example images are shown in Fig. S1 in the supplemental material). Encystment assays were performed with three independent biological replicates.

[2] = Cytotoxicity dose response, H4; format: cell-based; details: human, H4 (glial) cells, unit not given in Table S3, drug concentrations in µM, read-out: CC50 H4 cell line
Experimental: as §1

[3] = tested on: B. mandrillaris trophozoites; assay: Drug combination dose matrices, trophozoite viability (EOHSA model); format: cell-based, Balamuthia mandrillaris; details: 72 h
Experimental: Experiments measuring the effect of drug combinations were carried out similarly to the dose-response experiments described above. B. mandrillaris trophozoites were seeded into opaque 96-well plates (Corning) at a density of 4,000 amoebae per well and then treated with concentrations of nitroxoline that differed across the rows of each plate and with concentrations of either miltefosine or pentamidine isethionate that differed down the columns to generate 7-by-7 dose combination matrices. Final drug concentrations ranged from 0.5 to 10 µM, from 10 to 100 µM, and from 1 to 100 µM for nitroxoline, miltefosine, and pentamidine isethionate, respectively. After incubation with drug or vehicle was performed for 72 h, CTG was added to all assay wells and luminescence was measured with a Promega Glomax-Multi+ plate reader. The percent effect of each drug combination was calculated as the reduction in luminescence value relative to vehicle-only controls. The additive effect of drug combinations was assessed using the excess over highest single agent (EOHSA) model ([76], [77]). […] Drug combination experiments were performed with three independent replicates.

[4] = tested on: B. mandrillaris trophozoites; assay: microbe, parasite or virus in culture; format: cell-based, Balamuthia mandrillaris; details: Balamuthia mandrillaris, 72 h
[5] = Cytotoxicity dose response, HEK-293T; format: cell-based; details: human, HEK-293T (kidney) cells, unit not given in Table S3, drug concentrations in µM, read-out: CC50 HEK-293T cell line
Experimental: as §1

[6] = Cytotoxicity dose response, HFF-1; format: cell-based; details: human, HFF-1 (fibroblast) cells, unit not given in Table S3, drug concentrations in µM, read-out: CC50 HFF-1 cell line
Experimental: as §1

B. mandrillaris [7] = assay: Encystment assay, counts of cysts and trophozoites; format: cell-based, Balamuthia mandrillaris; details: 72 h of treatment with different drug concentrations
Experimental: as §1

[8] = Cytotoxicity dose response, U87; format: cell-based; details: human, U87 (glial) cells, unit not given in Table S3, drug concentrations in µM, read-out: CC50 U87 cell line
Experimental: as §1

[9] = Cytotoxicity dose response, Hep-G2; format: cell-based; details: human, Hep-G2 (liver) cells, unit not given in Table S3, drug concentrations in µM, read-out: CC50 Hep-G2 cell line
Experimental: as §1

[10] = set-up: method as in PMID 3309832, PMID 118941, PMID 7251741; details: adults, 600 to 800 mg/day, cited from earlier work
[11] = tested on: B. mandrillaris trophozoites; assay: Primary human brain tissue explant infection model; format: cell-based, Balamuthia mandrillaris; details: 35 μM simultaneously with inoculation, removed at 20 h, evaluated at 96 h
[12] = tested on: B. mandrillaris trophozoites; assay: Nitroxoline structure-activity relationship dose response (CellTiter Glo); format: cell-based, Balamuthia mandrillaris; details: Balamuthia mandrillaris, 72 h, 8-point dose response in triplicate; read-out: IC50
[13] = Cytotoxicity, mean of all cell lines; format: cell-based; details: human, U87, H4, HEK-293T, HFF-1 and Hep-G2 cell lines (mean of all), unit inferred
Experimental: as §1

[14] = tested on: HFF-1 human fibroblast cells; assay: Secondary screening dose response, toxicity to HFF-1 cells; format: cell-based; details: Homo sapiens, HFF-1; 72 h; approximated from dose-response curves; read-out: HFF1 IC50
Experimental: as §2

[15] = tested on: B. mandrillaris trophozoites; assay: Side-by-side dose response, trophozoite viability; format: cell-based, Balamuthia mandrillaris; details: 72 h
Experimental: as §1

gliomas = tested on: gliomas; set-up: method as in PMID 25074541; details: systemically delivered; cited from earlier work
B. mandrillaris [16] = assay: Recrudescence assay on HFF-1 monolayer after drug treatment; format: cell-based, Balamuthia mandrillaris
[17] = tested on: H4 human neuroglioma cells; assay: Secondary screening dose response, toxicity to H4 cells; format: cell-based; details: Homo sapiens; 72 h; approximated from dose-response curves

O=[N+]([O-])c1ccc(O)c2ncccc12 [Nitroxoline, 8-hydroxy-5-nitroquinoline]
IC50 [1]: 11 µM | IC50 (B. mandrillaris cysts; Balamuthia mandrillaris, read-out: IC50, B. mandrillaris cysts, preformed cysts, 12% galactose induction medium, 72 h): 15.5 µM | IC50 (B. mandrillaris cysts; preformed cysts, 12% galactose induction medium, read-out: IC50, B. mandrillaris cysts): 15.5 µM | CC50 at 72 h [2]: 5.6 µM | Percent inhibition of B. mandrillaris viability ([3]; Fig S2A, nitroxoline 0.5 µM alone): -4% | Percent inhibition of B. mandrillaris viability ([3]; Fig S2A, nitroxoline 2 µM alone): 28% | Percent inhibition of B. mandrillaris viability ([3]; Fig S2A, nitroxoline 2.5 µM alone): 31% | Percent inhibition of B. mandrillaris viability ([3]; Fig S2A, nitroxoline 3 µM alone): 34% | Percent inhibition of B. mandrillaris viability ([3]; Fig S2A, nitroxoline 5 µM alone): 92% | Percent inhibition of B. mandrillaris viability ([3]; Fig S2A, nitroxoline 10 µM alone): 93% | Percent inhibition of B. mandrillaris viability ([3]; Fig S2B, nitroxoline 0.5 µM alone): 0% | Percent inhibition of B. mandrillaris viability ([3]; Fig S2B, nitroxoline 2 µM alone): 28% | Percent inhibition of B. mandrillaris viability ([3]; Fig S2B, nitroxoline 2.5 µM alone): 33% | Percent inhibition of B. mandrillaris viability ([3]; Fig S2B, nitroxoline 3 µM alone): 32% | Percent inhibition of B. mandrillaris viability ([3]; Fig S2B, nitroxoline 5 µM alone): 91% | Percent inhibition of B. mandrillaris viability ([3]; Fig S2B, nitroxoline 10 µM alone): 92% | inhibition at 20 µM [4]: 100% | CC50 at 72 h [5]: 4.9 µM | CC50 at 72 h [6]: 51.8 µM | encystment response (B. mandrillaris [7]): increase in both the total number and the proportion of cysts | CC50 at 72 h [8]: 24.9 µM | CC50 at 72 h [9]: 9.3 µM | maximal plasma concentrations (Cmax) [10]: ~5600 ng/mL | Cmax ([10]; read-out: maximal plasma concentrations (Cmax)): ~30 µM | protection of human brain tissue explants [11]: do not show signs of tissue damage or loss of cell density | IC50 [12]: 4.77 µM | CC50 at 72 h [13]: 19.3 µM | IC50 [14]: > 30 µM | IC99, B. mandrillaris trophozoite viability [15]: 7.54 µM | IC50 ([15]; Balamuthia mandrillaris, read-out: IC50, B. mandrillaris trophozoites, 72 h): 2.8 µM | IC50 ([15]; read-out: IC50, B. mandrillaris trophozoites): 2.84 µM | efficacy against gliomas (gliomas): exhibits efficacy against gliomas in mice | Mean no. of days for host cell clearance ± SE (B. mandrillaris [16]; 3.5 µM for 72 h, then drug-free coculture with HFF-1, 28-day experiment): 15.33 ± 0.67 days | Mean no. of days for host cell clearance ± SE (B. mandrillaris [16]; 7 µM for 72 h, then drug-free coculture with HFF-1, 28-day experiment): 19 ± 0.58 days | Mean no. of days for host cell clearance ± SE (B. mandrillaris [16]; 14 µM for 72 h, then drug-free coculture with HFF-1, 28-day experiment): 22 ± 2.08 days | Mean no. of days for host cell clearance ± SE (B. mandrillaris [16]; 28 µM for 72 h, then drug-free coculture with HFF-1, NRT = no recovery of trophozoites or host cell destruction observed through 28 days): NRT^a | concentration that completely eliminated B. mandrillaris populations (B. mandrillaris [16]; 72 h treatment, no recovery after 28 days of coculture): 28 µM | IC50 [17]: 7 µM
